{"source": "paper PMC5721475", "about": "“Characterization of sulfhydryl oxidase from Aspergillus tubingensis” (BMC Biochemistry, 2017)", "biological_target": "T1, AtSOX (secreted sulfhydryl oxidase from Aspergillus tubingensis) (Aspergillus tubingensis, UniProt Z9JMF6K8Z8)", "T1 construct": "native secreted enzyme purified from culture medium; signal peptide removed; predicted N-terminus SSIPQ", "T1 sequence (Z9JMF6K8Z8 20-393)": "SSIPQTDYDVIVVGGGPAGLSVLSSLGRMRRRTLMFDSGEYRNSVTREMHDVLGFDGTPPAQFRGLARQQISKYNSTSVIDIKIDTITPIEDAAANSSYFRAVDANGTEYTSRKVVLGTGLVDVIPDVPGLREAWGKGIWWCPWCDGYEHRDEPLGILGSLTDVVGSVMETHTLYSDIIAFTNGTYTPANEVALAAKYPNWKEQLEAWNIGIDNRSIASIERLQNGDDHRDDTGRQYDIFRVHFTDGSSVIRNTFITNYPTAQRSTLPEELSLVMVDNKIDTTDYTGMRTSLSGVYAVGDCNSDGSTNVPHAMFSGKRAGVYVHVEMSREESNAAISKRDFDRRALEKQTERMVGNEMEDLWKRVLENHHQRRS", "assay": "UV-vis and fluorescence spectra; release of flavin by thermal denaturation", "type": "binding", "conditions": "non-covalently bound, copurified; 20 mM Tris-HCl pH 7.5, 20 °C"}
{"smiles": "Cc1cc2nc3c(=O)[nH]c(=O)nc-3n(C[C@H](O)[C@H](O)[C@H](O)COP(=O)(O)OP(=O)(O)OC[C@H]3O[C@@H](n4cnc5c(N)ncnc54)[C@H](O)[C@@H]3O)c2cc1C", "note": "[FAD, flavin adenine dinucleotide]", "values": [{"measurement": "UV-vis and fluorescence spectra; release of flavin by thermal denaturation", "result": "The enzyme had a non-covalently bound FAD as a cofactor"}]}
